SMILES	melting point
CCc1cc(Cn2nnc3c(-c4ccco4)nc(N)nc32)ccn1 [Example 136, 3-(2-ethyl-4-pyridylmethyl)-7-(2-furyl)-3H-[1,2,3]triazolo[4,5-d]pyrimidine-5-amine]	172.7 to 173.2 °C
CC(C)(C)OC(=O)n1ccc2cccc(Cn3nnc4c(-c5ccco5)nc(N)nc43)c21 [Example 137, tert-butyl 7-(5-amino-7-(2-furyl)-3H-[1,2,3]triazolo[4,5-d]pyrimidine-3-ylmethyl)indole-1-carboxylate]	176.3 to 176.5 °C
CC(C)(C)OC(=O)n1ccc2c(Cn3nnc4c(-c5ccco5)nc(N)nc43)cccc21 [Example 138, tert-butyl 4-(5-amino-7-(2-furyl)-3H-[1,2,3]triazolo[4,5-d]pyrimidine-3-ylmethyl)indole-1-carboxylate]	58.5 to 62.6 °C
Nc1nc(-c2ccco2)c2nnn(Cc3cccc4[nH]ccc34)c2n1 [Example 139, 7-(2-furyl)-3-(4-indolylmethyl)-3H-[1,2,3]triazolo[4,5-d]pyrimidine-5-amine]	192.3 to 193.5 °C
CC(C)(C)OC(=O)NCc1ccc(Cn2nnc3c(-c4ccco4)nc(N)nc32)cc1 [Example 140, tert-butyl N-(4-(5-amino-7-(2-furyl)-3H-[1,2,3]triazolo[4,5-d]pyrimidine-3-ylmethyl)benzyl)carbamate]	184 to 185.2 °C
Nc1ccc(Cn2nnc3c(-c4ccco4)nc(N)nc32)cc1 [Example 141, 3-(4-aminobenzyl)-7-(2-furyl)-3H-[1,2,3]triazolo[4,5-d]pyrimidine-5-amine]	240.3 to 240.4 °C
CC(C)(C)OC(=O)n1ccc2cc(Cn3nnc4c(-c5ccco5)nc(N)nc43)ccc21 [Example 142, tert-butyl 5-(5-amino-7-(2-furyl)-3H-[1,2,3]triazolo[4,5-d]pyrimidine-3-ylmethyl)indole-1-carboxylate]	189 to 189.1 °C
CC(C)(C)OC(=O)Nc1ccc(Cn2nnc3c(-c4ccco4)nc(N)nc32)cc1F [Example 143, tert-butyl N-(4-(5-amino-7-(2-furyl)-3H-[1,2,3]triazolo[4,5-d]pyrimidine-3-ylmethyl)-2-fluorophenyl)carbamate]	167 to 167.3 °C
NCc1ccc(Cn2nnc3c(-c4ccco4)nc(N)nc32)cc1 [Example 144, 3-(4-aminomethylbenzyl)-7-(2-furyl)-3H-[1,2,3]triazolo[4,5-d]pyrimidine-5-amine]	> 300 °C (dec.)
CC(C)(C)OC(=O)n1ccc2ccc(Cn3nnc4c(-c5ccco5)nc(N)nc43)cc21 [Example 146, tert-butyl 6-(5-amino-7-(2-furyl)-3H-[1,2,3]triazolo[4,5-d]pyrimidine-3-ylmethyl)indole-1-carboxylate]	180 to 180.5 °C
Nc1nc(-c2ccco2)c2nnn(Cc3ccc(N)c(F)c3)c2n1 [Example 147, 3-(4-amino-3-fluorobenzyl)-7-(2-furyl)-3H-[1,2,3]triazolo[4,5-d]pyrimidine-5-amine]	> 200 °C (dec.)
CC(C)(C)OC(=O)Oc1cc(F)c(Cn2nnc3c(-c4ccco4)nc(N)nc32)c(F)c1 [Example 148, tert-butyl (4-(5-amino-7-(2-furyl)-3H-[1,2,3]triazolo[4,5-d]pyrimidine-3-ylmethyl)-3,5-difluorophenyl)carbonate]	259.8 to 259.9 °C
Nc1cccc(Cn2nnc3c(-c4ccccc4)nc(N)nc32)c1 [Example 151, 3-(3-aminobenzyl)-7-phenyl-3H-[1,2,3]triazolo[4,5-d]pyrimidine-5-amine]	251.2 to 251.5 °C
Nc1nc(-c2ccco2)c2nnn(Cc3ccc4cc[nH]c4c3)c2n1 [Example 152, 7-(2-Furyl)-3-(6-indolylmethyl)-3H-[1,2,3]triazolo[4,5-d]pyrimidine-5-amine]	298.9 to 299 °C
Nc1nc(-c2ccco2)c2nnn(Cc3ccc4[nH]ccc4c3)c2n1 [Example 153, 7-(2-furyl)-3-(5-indolylmethyl)-3H-[1,2,3]triazolo[4,5-d]pyrimidine-5-amine]	226.8 to 227.4 °C
Nc1nc(-c2ccco2)c2nnn(Cc3cccc4cc[nH]c34)c2n1 [Example 154, 7-(2-furyl)-3-(7-indolylmethyl)-3H-[1,2,3]triazolo[4,5-d]pyrimidine-5-amine]	295.3 to 295.5 °C
Nc1nc(-c2ccco2)c2nnn(Cc3cc(F)ccc3[N+](=O)[O-])c2n1 [Example 155, 3-(5-fluoro-2-nitrobenzyl)-7-(2-furyl)-3H-[1,2,3]triazolo[4,5-d]pyrimidine-5-amine]	258.6 to 258.7 °C
CC(C)(C)OC(=O)NCc1ccccc1Cn1nnc2c(-c3ccco3)nc(N)nc21 [Example 157, tert-butyl N-(2-(5-amino-7-(2-furyl)-3H-[1,2,3]triazolo[4,5-d]pyrimidine-3-ylmethyl)benzyl)carbamate]	204.2 to 204.4 °C
Nc1nc(-c2ccco2)c2nnn(Cc3ccc4nn[nH]c4c3)c2n1 [Example 158, 3-(1H-Benzotriazol-5-ylmethyl)-7-(2-furyl)-3H-[1,2,3]triazolo[4,5-d]pyrimidine-5-amine]	> 300 °C (dec.)
COc1cc([N+](=O)[O-])ccc1Cn1nnc2c(-c3ccco3)nc(N)nc21 [Example 159, 7-(2-furyl)-3-(2-methoxy-4-nitrobenzyl)-3H-[1,2,3]triazolo[4,5-d]pyrimidine-5-amine]	235.9 to 237.8 °C
CC(=O)Nc1cccc(Cn2nnc3c(-c4ccco4)nc(N)nc32)c1 [Example 160]	277.4 to 277.9 °C
NCc1ccccc1Cn1nnc2c(-c3ccco3)nc(N)nc21 [Example 161, 3-(2-aminomethylbenzyl)-7-(2-furyl)-3H-[1,2,3]triazolo[4,5-d]pyrimidine-5-amine]	> 250 °C (dec.)
CN(C)c1cccc(Cn2nnc3c(-c4ccco4)nc(N)nc32)c1 [Example 162, 3-(3-(N,N-dimethylamino)benzyl)-7-(2-furyl)-3H-[1,2,3]triazolo[4,5-d]pyrimidine-5-amine]	195.1 to 195.2 °C

Second part, the compound after the results:

melting point	SMILES
120.1 to 121 °C	Nc1nc(-c2ccco2)c2nnn(Cc3cccc(CN4C(=O)c5ccccc5C4=O)n3)c2n1 [Example 164, 7-(2-furyl)-3-(6-phthalimidomethyl-2-pyridylmethyl)-3H-[1,2,3]triazolo[4,5-d]pyrimidine-5-amine]
259.7 to 259.8 °C	Nc1nc(-c2ccco2)c2nnn(Cc3ccc(F)c(N)c3)c2n1 [Example 165, 3-(3-amino-4-fluorobenzyl)-7-(2-furyl)-3H-[1,2,3]triazolo[4,5-d]pyrimidine-5-amine]
210.3 to 211.2 °C	Nc1nc(-c2ccco2)c2nnn(Cc3ccc4c(c3)CCO4)c2n1 [Example 166, 3-(2,3-dihydrobenzofuran-5-ylmethyl)-7-(2-furyl)-3H-[1,2,3]triazolo[4,5-d]pyrimidine-5-amine]
204 to 204.2 °C	Nc1nc(-c2ccco2)c2nnn(Cc3cc(F)cc(F)c3F)c2n1 [Example 168, 7-(2-furyl)-3-(2,3,5-trifluorobenzyl)-3H-[1,2,3]triazolo[4,5-d]pyrimidine-5-amine]
219.3 °C	Nc1nc(-c2ccco2)c2nnn(Cc3cc(F)ccc3N)c2n1 [Example 171, 3-(2-amino-5-fluorobenzyl)-7-(2-furyl)-3H-[1,2,3]triazolo[4,5-d]pyrimidine-5-amine]
239.6 to 239.8 °C	Nc1nc(-c2ccco2)c2nnn(Cc3ccc(N)c(O)c3)c2n1 [Example 173, 3-(4-amino-3-hydroxybenzyl)-7-(2-furyl)-3H-[1,2,3]triazolo[4,5-d]pyrimidine-5-amine]
> 200 °C (dec.)	Cc1ccc(-c2nc(N)nc3c2nnn3Cc2ccc(N)c(F)c2)o1 [Example 174, 3-(4-amino-3-fluorobenzyl)-7-(5-methyl-2-furyl)-3H-[1,2,3]triazolo[4,5-d]pyrimidine-5-amine]
279.3 to 281.3 °C	Nc1cccc(Cn2nnc3c(-c4ccn[nH]4)nc(N)nc32)c1 [Example 175, 3-(3-aminobenzyl)-7-(1H-pyrazol-3-yl)-3H-[1,2,3]triazolo[4,5-d]pyrimidine-5-amine]
245.9 to 247 °C	CC(=O)NCc1cccc(Cn2nnc3c(-c4ccco4)nc(N)nc32)n1 [Example 177, 3-(6-Acetamidomethyl-2-pyridylmethyl)-7-(2-furyl)-3H-[1,2,3]triazolo[4,5-d]pyrimidine-5-amine]
216.7 to 218.4 °C	CC(=O)NCc1ccccc1Cn1nnc2c(-c3ccco3)nc(N)nc21 [Example 178, N-(2-(5-amino-7-(2-furyl)-3H-[1,2,3]triazolo[4,5-d]pyrimidin-3-ylmethyl)benzyl)acetamide]
215.8 to 216.9 °C	Nc1nc(-c2ccco2)c2nnn(Cc3ccsc3)c2n1 [Example 179, 7-(2-furyl)-3-(3-thienylmethyl)-3H-[1,2,3]triazolo[4,5-d]pyrimidine-5-amine]
278.4 to 279.9 °C	Cc1ccc(-c2nc(N)nc3c2nnn3Cc2cccc(N)c2C)o1 [Example 180, 3-(3-amino-2-methylbenzyl)-7-(5-methyl-2-furyl)-3H-[1,2,3]triazolo[4,5-d]pyrimidine-5-amine]
92.3 to 92.7 °C	C=CCOCc1cccc(Cn2nnc3c(-c4ccco4)nc(N(CC=C)CC=C)nc32)n1 [Example 182, 3-(6-Allyloxymethyl-2-pyridylmethyl)-N,N-diallyl-7-(2-furyl)-3H-[1,2,3]triazolo[4,5-d]pyrimidine-5-amine]
152 to 153.5 °C	COCc1cccc(Cn2nnc3c(-c4ccc(C)o4)nc(N)nc32)n1 [Example 183, 3-(6-methoxymethyl-2-pyridylmethyl)-7-(5-methyl-2-furyl)-3H-[1,2,3]triazolo[4,5-d]pyrimidine-5-amine]
219.7 to 220.4 °C	Cc1ccc(-c2nc(N)nc3c2nnn3Cc2ccc(N)cc2)o1 [Example 184, 3-(4-aminobenzyl)-7-(5-methyl-2-furyl)-3H-[1,2,3]triazolo[4,5-d]pyrimidine-5-amine]
155.6 to 157.1 °C	C=CCOCc1cccc(Cn2nnc3c(-c4ccco4)nc(N)nc32)n1 [Example 185, 3-(6-allyloxymethyl-2-pyridylmethyl)-7-(2-furyl)-3H-[1,2,3]triazolo[4,5-d]pyrimidine-5-amine]
